Test results from patent US20240116985A1, “STAPLED PEPTIDES AND METHODS THEREOF” (priority 2020, published 2024).

Experiments:
[1] = target: T1, full-length beta-Catenin (Uniprot ID P35222) (Homo sapiens, UniProt P35222); assay: Fluorescence polarization IC50 (beta-catenin / 5FAM-TCF4 10-53 competition); format: binding; conditions: fluorescence polarization; read-out: beta-Catenin FP IC50
T1 construct: 10 nM full-length beta-Catenin (Uniprot ID P35222)
T1 sequence (P35222 1-781): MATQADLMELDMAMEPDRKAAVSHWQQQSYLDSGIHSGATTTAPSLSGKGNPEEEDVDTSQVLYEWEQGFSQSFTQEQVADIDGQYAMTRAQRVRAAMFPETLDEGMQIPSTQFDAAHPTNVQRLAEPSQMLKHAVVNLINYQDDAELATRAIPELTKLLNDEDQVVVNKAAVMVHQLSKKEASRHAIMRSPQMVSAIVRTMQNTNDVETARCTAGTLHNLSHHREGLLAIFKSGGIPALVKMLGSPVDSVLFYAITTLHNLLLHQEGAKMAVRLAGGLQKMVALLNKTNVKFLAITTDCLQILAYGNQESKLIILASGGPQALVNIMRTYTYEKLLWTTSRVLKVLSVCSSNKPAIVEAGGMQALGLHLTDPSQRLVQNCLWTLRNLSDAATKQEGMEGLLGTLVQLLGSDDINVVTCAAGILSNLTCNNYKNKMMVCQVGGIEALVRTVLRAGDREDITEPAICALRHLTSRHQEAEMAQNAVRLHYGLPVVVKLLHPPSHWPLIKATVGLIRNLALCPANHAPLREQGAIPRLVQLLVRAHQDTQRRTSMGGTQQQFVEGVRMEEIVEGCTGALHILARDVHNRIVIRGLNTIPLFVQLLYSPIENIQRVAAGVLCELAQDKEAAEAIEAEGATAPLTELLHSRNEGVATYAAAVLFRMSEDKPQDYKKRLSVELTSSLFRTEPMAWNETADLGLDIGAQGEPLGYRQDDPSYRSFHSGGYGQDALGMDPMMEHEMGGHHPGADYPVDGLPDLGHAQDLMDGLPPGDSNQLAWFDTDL

[2] = target: T2, beta-catenin/TCF4 engagement (Homo sapiens, UniProt P35222); assay: Nano-BRET target engagement assay (B-cat-Halo & TCF4-Luc in HEK293 cells); format: cell-based; conditions: absolute IC50; read-out: NanoBRET Abs IC50
T2 construct: expressed in transfected cells; host or cells: HEK293
T2 sequence (P35222 1-781): T1 sequence (P35222 1-781)

| Compound | IC50 [1] [µM] | IC50 [2] [µM] |
| --- | --- | --- |
| CC(=O)N1CCC[C@]12CC=CCCCC1(CCCC=CCCCOC(=O)N3CC[C@@](C(=O)N[C@@H](Cc4ccccc4C(F)(F)F)C(=O)N[C@@H](Cc4csc5ccccc45)C(=O)N[C@@H](CO)C(N)=O)(C3)NC(=O)[C@H](Cc3ccccc3)NC(=O)[C@H](Cc3ccccc3)NC(=O)[C@H](C)NC(=O)[C@H](C)NC(=O)[C@H](Cc3ccccc3C(=O)O)NC(=O)[C@H](CC(=O)O)NC1=O)NC(=O)[C@H](CC(C)(C)C)NC(=O)[C@H](CC(=O)O)NC2=O (stereo partly drawn) [I-1659, Ac-PL3-Asp-Npg-B5-Asp-2COOHF-Ala-Ala-Phe-Phe-PyrS2-2F3MeF-BztA-Ser-NH2] | 0.108 | 11.4 |
| CC(=O)N1CCC[C@]12CC=CCCCC1(CCCC=CCCCOC(=O)N3CC[C@@](C(=O)N[C@@H](Cc4ccccc4Cl)C(=O)N[C@@H](Cc4csc5ccccc45)C(=O)N[C@@H](CO)C(N)=O)(C3)NC(=O)[C@H](Cc3ccccc3)NC(=O)[C@H](Cc3ccccc3)NC(=O)[C@H](C)NC(=O)[C@H](C)NC(=O)[C@H](Cc3ccccc3C(=O)O)NC(=O)[C@H](CC(=O)O)NC1=O)NC(=O)[C@H](CC(C)(C)C)NC(=O)[C@H](CC(=O)O)NC2=O (stereo partly drawn) [I-1662, Ac-PL3-Asp-Npg-B5-Asp-2COOHF-Ala-Ala-Phe-Phe-PyrS2-2C1F-BztA-Ser-NH2] | 0.069 | 12 |
| CC(=O)N1CCC[C@]12CC=CCCCC1(CCCC=CCCCOC(=O)N3CC[C@@](C(=O)N[C@@H](Cc4ccccc4Cl)C(=O)N[C@@H](Cc4csc5ccccc45)C(=O)N[C@@H](CO)C(N)=O)(C3)NC(=O)[C@H](CC(C)C)NC(=O)[C@H](Cc3ccccc3)NC(=O)[C@H](C)NC(=O)[C@H](C)NC(=O)[C@H](Cc3ccccc3C(=O)O)NC(=O)[C@H](CC(=O)O)NC1=O)NC(=O)[C@H](CC(C)(C)C)NC(=O)[C@H](CC(=O)O)NC2=O (stereo partly drawn) [I-1663, Ac-PL3-Asp-Npg-B5-Asp-2COOHF-Ala-Ala-Phe-Leu-PyrS2-2C1F-BztA-Ser-NH2] | 0.067 | 8.5 |
| CC(=O)N1CCC[C@]12CC=CCCCC1(CCCC=CCCCOC(=O)N3CC[C@@](C(=O)N[C@@H](Cc4ccccc4Cl)C(=O)N[C@@H](Cc4csc5ccccc45)C(=O)N[C@@H](CCC(N)=O)C(=O)N[C@H](CO)Cc4ccccc4)(C3)NC(=O)[C@H](CC(C)C)NC(=O)[C@H](Cc3ccccc3)NC(=O)[C@H](C)NC(=O)[C@H](C)NC(=O)[C@H](Cc3cccc(C(=O)O)c3)NC(=O)[C@H](CC(=O)O)NC1=O)NC(=O)[C@H](CC(C)(C)C)NC(=O)[C@H](CC(=O)O)NC2=O (stereo partly drawn) [I-1674, Ac-PL3-Asp-Npg-B5-Asp-3COOHF-Ala-Ala-Phe-Leu-PyrS2-2C1F-BztA-Gln-] | 0.147 | 18.3 |
| CC(=O)N1CCC[C@]12CC=CCCCC1(CCCC=CCCCOC(=O)N3CC[C@@](C(=O)N[C@@H](Cc4ccsc4)C(=O)N[C@@H](Cc4csc5ccccc45)C(=O)N[C@@H](CCC(N)=O)C(=O)N[C@H](CO)Cc4ccccc4)(C3)NC(=O)[C@H](CC(C)C)NC(=O)[C@H](Cc3ccccc3)NC(=O)[C@H](C)NC(=O)[C@H](C)NC(=O)[C@H](CN(CC(=O)O)CC(F)(F)F)NC(=O)[C@H](CC(=O)O)NC1=O)NC(=O)[C@H](CC(C)(C)C)NC(=O)[C@H](CC(=O)O)NC2=O (stereo partly drawn) [I-1680, Ac-PL3-Asp-Npg-B5-Asp-TfeGA-Ala-Ala-Phe-Leu-PyrS2-3Thi-BztA-Gln-Pheo1] | 0.0805 | 12.5 |

These reach a lower IC50 [1]. Values come first.

| IC50 [1] [µM] | IC50 [2] [µM] | Compound |
| --- | --- | --- |
| 0.048 | 12.7 | CC(=O)N1CCC[C@]12CC=CCCCC1(CCCC=CCCCOC(=O)N3CC[C@@](C(=O)N[C@@H](Cc4ccccc4C(F)(F)F)C(=O)N[C@@H](Cc4csc5ccccc45)C(=O)N[C@@H](CCC(N)=O)C(N)=O)(C3)NC(=O)[C@H](Cc3ccccc3)NC(=O)[C@H](Cc3ccccc3)NC(=O)[C@H](C)NC(=O)[C@H](C)NC(=O)[C@H](Cc3ccccc3C(=O)O)NC(=O)[C@H](CC(=O)O)NC1=O)NC(=O)[C@H](CC(C)(C)C)NC(=O)[C@H](CC(=O)O)NC2=O (stereo partly drawn) [I-1655, Ac-PL3-Asp-Npg-B5-Asp-2COOHF-Ala-Ala-Phe-Phe-PyrS2-2F3MeF-BztA-Gln-NH2] |
| 0.02 | 10.9 | CC(=O)N1CCC[C@]12CC=CCCCC1(CCCC=CCCCOC(=O)N3CC[C@@](C(=O)N[C@@H](Cc4ccccc4C(F)(F)F)C(=O)N[C@@H](Cc4csc5ccccc45)C(=O)N[C@@H](CCC(N)=O)C(N)=O)(C3)NC(=O)[C@H](CC(C)C)NC(=O)[C@H](Cc3ccccc3)NC(=O)[C@H](C)NC(=O)[C@H](C)NC(=O)[C@H](Cc3ccccc3C(=O)O)NC(=O)[C@H](CC(=O)O)NC1=O)NC(=O)[C@H](CC(C)(C)C)NC(=O)[C@H](CC(=O)O)NC2=O (stereo partly drawn) [I-1656, Ac-PL3-Asp-Npg-B5-Asp-2COOHF-Ala-Ala-Phe-Leu-PyrS2-2F3MeF-BztA-Gln-NH2] |
| 0.036 | 11 | CC(=O)N1CCC[C@]12CC=CCCCC1(CCCC=CCCCOC(=O)N3CC[C@@](C(=O)N[C@@H](Cc4ccccc4Cl)C(=O)N[C@@H](Cc4csc5ccccc45)C(=O)N[C@@H](CCC(N)=O)C(N)=O)(C3)NC(=O)[C@H](Cc3ccccc3)NC(=O)[C@H](Cc3ccccc3)NC(=O)[C@H](C)NC(=O)[C@H](C)NC(=O)[C@H](Cc3ccccc3C(=O)O)NC(=O)[C@H](CC(=O)O)NC1=O)NC(=O)[C@H](CC(C)(C)C)NC(=O)[C@H](CC(=O)O)NC2=O (stereo partly drawn) [I-1657, Ac-PL3-Asp-Npg-B5-Asp-2COOHF-Ala-Ala-Phe-Phe-PyrS2-2C1F-BztA-Gln-NH2] |
| 0.019 | 9.8 | CC(=O)N1CCC[C@]12CC=CCCCC1(CCCC=CCCCOC(=O)N3CC[C@@](C(=O)N[C@@H](Cc4ccccc4Cl)C(=O)N[C@@H](Cc4csc5ccccc45)C(=O)N[C@@H](CCC(N)=O)C(N)=O)(C3)NC(=O)[C@H](CC(C)C)NC(=O)[C@H](Cc3ccccc3)NC(=O)[C@H](C)NC(=O)[C@H](C)NC(=O)[C@H](Cc3ccccc3C(=O)O)NC(=O)[C@H](CC(=O)O)NC1=O)NC(=O)[C@H](CC(C)(C)C)NC(=O)[C@H](CC(=O)O)NC2=O (stereo partly drawn) [I-1658, Ac-PL3-Asp-Npg-B5-Asp-2COOHF-Ala-Ala-Phe-Leu-PyrS2-2C1F-BztA-Gln-NH2] |
| 0.04 | 7.1 | CCNC(=O)[C@H](CCC(N)=O)NC(=O)[C@H](Cc1csc2ccccc12)NC(=O)[C@H](Cc1ccccc1Cl)NC(=O)[C@]12CCN(C1)C(=O)OCCCC=CCCCC1(CCCC=CC[C@]3(CCCN3C(C)=O)C(=O)N[C@@H](CC(=O)O)C(=O)N[C@@H](CC(C)(C)C)C(=O)N1)C(=O)N[C@@H](CC(=O)O)C(=O)N[C@@H](Cc1cccc(C(=O)O)c1)C(=O)N[C@@H](C)C(=O)N[C@@H](C)C(=O)N[C@@H](Cc1ccccc1)C(=O)N[C@@H](CC(C)C)C(=O)N2 (stereo partly drawn) [I-1672, Ac-PL3-Asp-Npg-B5-Asp-3COOHF-Ala-Ala-Phe-Leu-PyrS2-2C1F-BztA-Gln-NHEt] |
| 0.0185 | 9.7 | CC(=O)N1CCC[C@]12CC=CCCCC1(CCCC=CCCCOC(=O)N3CC[C@@](C(=O)N[C@@H](Cc4ccccc4Cl)C(=O)N[C@@H](Cc4csc5ccccc45)C(=O)N[C@@H](CCC(N)=O)C(=O)N4CCC[C@H]4CO)(C3)NC(=O)[C@H](CC(C)C)NC(=O)[C@H](Cc3ccccc3)NC(=O)[C@H](C)NC(=O)[C@H](C)NC(=O)[C@H](Cc3cccc(C(=O)O)c3)NC(=O)[C@H](CC(=O)O)NC1=O)NC(=O)[C@H](CC(C)(C)C)NC(=O)[C@H](CC(=O)O)NC2=O (stereo partly drawn) [I-1675, Ac-PL3-Asp-Npg-B5-Asp-3COOHF-Ala-Ala-Phe-Leu-PyrS2-2C1F-BztA-Gln-Proo1] |
| 0.032 | 9.7 | CCNC(=O)[C@H](CCC(N)=O)NC(=O)[C@H](Cc1csc2ccccc12)NC(=O)[C@H](Cc1ccsc1)NC(=O)[C@]12CCN(C1)C(=O)OCCCC=CCCCC1(CCCC=CC[C@]3(CCCN3C(C)=O)C(=O)N[C@@H](CC(=O)O)C(=O)N[C@@H](CC(C)(C)C)C(=O)N1)C(=O)N[C@@H](CC(=O)O)C(=O)N[C@@H](CN(CC(=O)O)CC(F)(F)F)C(=O)N[C@@H](C)C(=O)N[C@@H](C)C(=O)N[C@@H](Cc1ccccc1)C(=O)N[C@@H](CC(C)C)C(=O)N2 (stereo partly drawn) [I-1678, Ac-PL3-Asp-Npg-B5-Asp-TfeGA-Ala-Ala-Phe-Leu-PyrS2-3Thi-BztA-Gln-NHEt] |
| 0.0185 | 5.4 | CC(=O)N1CCC[C@]12CC=CCCCC1(CCCC=CCCCOC(=O)N3CC[C@@](C(=O)N[C@@H](Cc4ccsc4)C(=O)N[C@@H](Cc4csc5ccccc45)C(=O)N[C@@H](CCC(N)=O)C(=O)N4CCC[C@H]4CO)(C3)NC(=O)[C@H](CC(C)C)NC(=O)[C@H](Cc3ccccc3)NC(=O)[C@H](C)NC(=O)[C@H](C)NC(=O)[C@H](CN(CC(=O)O)CC(F)(F)F)NC(=O)[C@H](CC(=O)O)NC1=O)NC(=O)[C@H](CC(C)(C)C)NC(=O)[C@H](CC(=O)O)NC2=O (stereo partly drawn) [I-1681, Ac-PL3-Asp-Npg-B5-Asp-TfeGA-Ala-Ala-Phe-Leu-PyrS2-3Thi-BztA-Gln-Proo1] |
